Data: paper PMC7784776 (ACS chemical biology, 2020)
Values after ≈ are worked out from the molar mass of the structure shown. Values joined by “and” are separate entries in the source; they are usually repeats but may differ in a detail not shown here. Equal values may be shown once. Read-outs that look alike come from different tables or passages of the source.

Key:
[1] = molecular target: PBP1a/1b (Bacillus subtilis, UniProt P39793); test: Fluorescent whole cell β-lactam titration with Boc-FL readout, SDS-PAGE; assay type: cell-based
Chain of PBP1a/1b (P39793 77-662): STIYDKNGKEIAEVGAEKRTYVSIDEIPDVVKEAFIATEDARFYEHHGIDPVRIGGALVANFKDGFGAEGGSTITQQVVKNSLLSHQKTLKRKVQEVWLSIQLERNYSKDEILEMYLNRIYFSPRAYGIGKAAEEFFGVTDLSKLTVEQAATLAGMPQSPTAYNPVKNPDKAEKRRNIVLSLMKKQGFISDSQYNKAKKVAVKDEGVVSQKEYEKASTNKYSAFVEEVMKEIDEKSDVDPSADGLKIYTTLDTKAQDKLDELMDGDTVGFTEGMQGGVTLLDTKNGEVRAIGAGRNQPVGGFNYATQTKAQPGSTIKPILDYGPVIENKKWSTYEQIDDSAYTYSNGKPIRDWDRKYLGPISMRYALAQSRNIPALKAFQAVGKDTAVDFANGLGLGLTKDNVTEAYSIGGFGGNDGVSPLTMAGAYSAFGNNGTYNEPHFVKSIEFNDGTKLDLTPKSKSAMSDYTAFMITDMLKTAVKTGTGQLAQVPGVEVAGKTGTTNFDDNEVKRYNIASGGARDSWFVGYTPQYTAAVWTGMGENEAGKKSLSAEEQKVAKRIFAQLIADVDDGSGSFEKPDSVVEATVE

[2] = molecular target: PBP5 (Bacillus subtilis, UniProt P08750); test: as above; assay type: cell-based
Chain of PBP5 (P08750 32-443): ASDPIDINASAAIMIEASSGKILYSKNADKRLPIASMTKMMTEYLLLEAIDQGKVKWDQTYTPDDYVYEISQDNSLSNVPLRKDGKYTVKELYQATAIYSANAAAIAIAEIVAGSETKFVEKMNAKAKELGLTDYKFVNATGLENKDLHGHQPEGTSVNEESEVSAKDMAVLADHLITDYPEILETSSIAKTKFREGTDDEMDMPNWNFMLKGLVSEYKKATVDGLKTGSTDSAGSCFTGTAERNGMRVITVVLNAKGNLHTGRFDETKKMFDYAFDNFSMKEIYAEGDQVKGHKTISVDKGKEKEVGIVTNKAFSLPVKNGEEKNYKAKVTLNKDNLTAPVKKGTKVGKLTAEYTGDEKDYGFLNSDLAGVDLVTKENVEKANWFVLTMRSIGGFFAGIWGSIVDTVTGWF

[3] = molecular target: PBP2b/H (Bacillus subtilis, UniProt Q07868); test: as above; assay type: cell-based; conditions: for inhibition of PBP2b at MIC: at growth inhibitory concentration, substantial inhibition (>50%) not the case
Chain of PBP2b/H (Q07868 whole entry): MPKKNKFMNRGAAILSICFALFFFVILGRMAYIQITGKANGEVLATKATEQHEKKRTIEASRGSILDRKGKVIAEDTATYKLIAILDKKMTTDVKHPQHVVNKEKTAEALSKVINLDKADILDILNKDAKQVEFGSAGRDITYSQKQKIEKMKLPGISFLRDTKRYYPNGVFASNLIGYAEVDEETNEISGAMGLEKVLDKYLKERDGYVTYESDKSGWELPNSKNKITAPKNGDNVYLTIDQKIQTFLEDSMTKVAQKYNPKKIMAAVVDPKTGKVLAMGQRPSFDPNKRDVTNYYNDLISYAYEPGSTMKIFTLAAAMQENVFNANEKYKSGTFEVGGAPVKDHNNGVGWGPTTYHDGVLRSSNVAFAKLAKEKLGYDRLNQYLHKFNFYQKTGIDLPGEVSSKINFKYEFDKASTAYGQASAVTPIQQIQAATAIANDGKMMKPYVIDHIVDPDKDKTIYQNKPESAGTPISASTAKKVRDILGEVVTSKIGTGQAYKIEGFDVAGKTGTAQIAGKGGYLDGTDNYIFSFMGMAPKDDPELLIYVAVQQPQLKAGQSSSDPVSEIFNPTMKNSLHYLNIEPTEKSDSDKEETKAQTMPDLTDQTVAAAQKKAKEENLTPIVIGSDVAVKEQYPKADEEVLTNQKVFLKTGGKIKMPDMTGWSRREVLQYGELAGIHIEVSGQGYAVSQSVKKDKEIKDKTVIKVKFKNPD

[4] = molecular target: T1, PBP3 (Bacillus subtilis, UniProt P42971); test: as above; assay type: cell-based
T1 sequence (P42971 whole entry): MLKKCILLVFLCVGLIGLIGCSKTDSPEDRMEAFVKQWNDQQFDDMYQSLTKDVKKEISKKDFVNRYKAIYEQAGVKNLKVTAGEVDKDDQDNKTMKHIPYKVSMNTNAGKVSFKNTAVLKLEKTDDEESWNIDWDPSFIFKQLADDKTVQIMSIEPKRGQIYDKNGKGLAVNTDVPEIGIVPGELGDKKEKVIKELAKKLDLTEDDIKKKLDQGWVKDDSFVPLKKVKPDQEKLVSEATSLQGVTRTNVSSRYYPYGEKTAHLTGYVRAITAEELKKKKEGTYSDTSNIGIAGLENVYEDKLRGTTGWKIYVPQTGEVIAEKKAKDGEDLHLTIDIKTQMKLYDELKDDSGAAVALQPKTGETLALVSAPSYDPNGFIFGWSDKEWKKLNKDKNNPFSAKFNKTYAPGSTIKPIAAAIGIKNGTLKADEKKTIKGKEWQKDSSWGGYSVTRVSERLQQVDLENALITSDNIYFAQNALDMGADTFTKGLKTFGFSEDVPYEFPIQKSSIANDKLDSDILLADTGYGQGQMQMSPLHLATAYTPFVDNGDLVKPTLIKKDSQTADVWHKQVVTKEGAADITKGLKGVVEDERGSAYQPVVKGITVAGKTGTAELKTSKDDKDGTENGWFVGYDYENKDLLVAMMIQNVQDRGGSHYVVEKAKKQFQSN

[5] = molecular target: PBP4 (Bacillus subtilis, UniProt P40750); test: as above; assay type: cell-based
Chain of PBP4 (P40750 22-624): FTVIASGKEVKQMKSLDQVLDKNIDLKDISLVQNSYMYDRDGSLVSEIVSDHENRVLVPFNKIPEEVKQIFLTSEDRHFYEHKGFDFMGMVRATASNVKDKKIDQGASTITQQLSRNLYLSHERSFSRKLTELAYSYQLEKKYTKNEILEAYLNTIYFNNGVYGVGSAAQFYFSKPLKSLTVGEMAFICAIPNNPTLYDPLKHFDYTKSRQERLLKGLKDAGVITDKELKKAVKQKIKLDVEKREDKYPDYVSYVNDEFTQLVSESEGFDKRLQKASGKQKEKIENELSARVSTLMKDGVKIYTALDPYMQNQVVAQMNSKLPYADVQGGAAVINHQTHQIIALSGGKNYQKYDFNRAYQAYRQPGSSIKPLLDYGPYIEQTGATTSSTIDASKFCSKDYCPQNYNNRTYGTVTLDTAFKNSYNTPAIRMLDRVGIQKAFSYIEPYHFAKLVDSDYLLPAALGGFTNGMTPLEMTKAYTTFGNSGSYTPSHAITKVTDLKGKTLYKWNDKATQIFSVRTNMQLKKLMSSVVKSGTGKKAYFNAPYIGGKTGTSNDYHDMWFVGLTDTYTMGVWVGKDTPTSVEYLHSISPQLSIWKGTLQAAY

[6] = system: B. subtilis PY79; test: Minimum inhibitory concentration; assay type: cell-based; conditions: Bacillus subtilis
[7] = molecular target: PBP2a (Bacillus subtilis, UniProt P54488); test: Fluorescent whole cell β-lactam titration with Boc-FL readout, SDS-PAGE; assay type: cell-based
Chain of PBP2a (P54488 whole entry): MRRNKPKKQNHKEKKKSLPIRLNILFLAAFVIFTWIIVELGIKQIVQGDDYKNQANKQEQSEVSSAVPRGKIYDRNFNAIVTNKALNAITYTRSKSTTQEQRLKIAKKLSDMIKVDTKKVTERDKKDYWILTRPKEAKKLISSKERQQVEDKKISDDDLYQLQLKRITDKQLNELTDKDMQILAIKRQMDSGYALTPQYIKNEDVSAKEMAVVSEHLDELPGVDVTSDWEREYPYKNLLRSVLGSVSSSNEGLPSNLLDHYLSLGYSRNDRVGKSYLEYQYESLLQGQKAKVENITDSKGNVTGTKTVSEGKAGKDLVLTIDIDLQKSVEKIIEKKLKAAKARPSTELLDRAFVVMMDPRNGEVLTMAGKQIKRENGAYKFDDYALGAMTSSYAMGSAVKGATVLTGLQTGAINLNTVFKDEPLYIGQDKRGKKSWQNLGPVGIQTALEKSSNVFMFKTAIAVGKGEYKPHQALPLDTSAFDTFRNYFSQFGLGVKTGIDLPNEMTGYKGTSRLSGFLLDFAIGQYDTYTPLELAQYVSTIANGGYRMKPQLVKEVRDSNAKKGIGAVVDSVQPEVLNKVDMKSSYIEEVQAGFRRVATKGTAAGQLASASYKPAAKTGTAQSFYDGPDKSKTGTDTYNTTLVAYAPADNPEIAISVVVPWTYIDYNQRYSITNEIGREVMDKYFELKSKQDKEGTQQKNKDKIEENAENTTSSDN

[8] = system: B. subtilis PBPs; test: PBP inhibition/selectivity profile across all detected PBPs; assay type: cell-based, Bacillus subtilis; conditions: at MIC
[9] = system: B. subtilis PBPs; test: β-Lactam titration of DK694; assay type: cell-based, Bacillus subtilis; conditions: DK694 (ΔpbpH) cells
[10] = molecular target: T1, PBP3; test: Fluorescence imaging of PBP3 activity with MEM-BODIPY FL in live DK654; assay type: cell-based; conditions: pretreatment 10 μg/mL
[11] = system: B. subtilis PBPs; test: PBP activity profile after growth with sub-MIC meropenem; assay type: cell-based, Bacillus subtilis; conditions: 0.01 μg/mL, 2 h
[12] = IC50 PBP3, B. subtilis PY79 whole cells, average of two experiments
[13] = read-out: IC50 PBP2a, B. subtilis PY79 whole cells, average of two experiments

Compound | IC50 [1] [µM] | IC50 [2] [µM] | IC50 [3] [µM] | inhibition of PBP2b at MIC [3] [%] | IC50 [4, 12] [µM] | IC50 [5] [µM] | MIC [6] [mg/L] | IC50 [7] [µM] | PBP inhibition at growth inhibitory concentrations [8] | IC50 values for individual PBPs in DK694 (ΔpbpH) versus wild type [9] | IC50 [7, 13] [µM] | IC50 ([4]; read-out: IC50 PBP3, B. subtilis PY79 whole cells, average of two experiments) [µM] | MEM-BODIPY FL fluorescent signal upon pretreatment of the cells [10] | concentration for selective and complete inhibition of PBP5 ([2]; B. subtilis whole cells) | concentration for selective and complete inhibition of PBP5 ([2]; corresponding to ~1 μg/mL) [µM] | PBP inhibition after growth with sub-MIC concentration [11] | IC50 ([4]; 50% inhibition of PBP3, concentration in μM, corresponding to 0.26 μg/mL) [µM] | concentration for complete inhibition of PBP3 ([4]; B. subtilis whole cells) | concentration for complete inhibition of PBP3 ([4]; corresponding to 1 μg/mL) [µM]
CC1(C)S[C@@H]2[C@H](N)C(=O)N2[C@H]1C(=O)O [6-APA, 6-Aminopenicillanic acid] | > 4620 | 19 | > 4620 | ≤ 50 | > 4620 | > 4620 | 8 to 256 (≈ 37 to 1180 µM) | 511 | failed to significantly block any PBPs |  |  |  |  |  |  |  |  |  | 
CC1(C)S[C@@H]2[C@H](NC(=O)[C@H](N)c3ccc(O)cc3)C(=O)N2[C@H]1C(=O)O [amoxicillin] | 0.00274 | 3.04 | 0.241 |  | 0.383 | 0.208 | 4 (≈ 10.9 µM) | 0.203 |  |  |  |  |  |  |  |  |  |  | 
CC1(C)S[C@@H]2[C@H](NC(=O)[C@H](N)c3ccccc3)C(=O)N2[C@H]1C(=O)O [ampicillin] | < 0.0286 | 0.343 | 0.0269 |  | 0.12 | 0.0106 | 8 (≈ 22.9 µM) | 0.0103 |  | comparable and within twofold in most cases |  |  |  |  |  |  |  |  | 
C[C@H]1[C@H](NC(=O)/C(=N\OC(C)(C)C(=O)O)c2csc(N)n2)C(=O)N1S(=O)(=O)O [aztreonam] |  |  |  | ≤ 50 |  |  | 16 (≈ 36.7 µM) |  |  |  |  |  |  |  |  |  |  |  | 
CO/N=C(\C(=O)N[C@@H]1C(=O)N2C(C(=O)O)=C(COC(C)=O)CS[C@H]12)c1csc(N)n1 [cefotaxime] | 0.00285 | > 2200 | < 0.22 |  | 2.17 | < 0.22 | 0.0625 (≈ 0.137 µM) |  |  |  | < 220 |  |  |  |  |  |  |  | 
CO[C@@]1(NC(=O)Cc2cccs2)C(=O)N2C(C(=O)O)=C(COC(N)=O)CS[C@@H]21 [cefoxitin] | 0.0328 | 0.444 | 0.444 |  | 2.43 | 0.0328 | 1 (≈ 2.34 µM) | 1.68 |  |  |  |  |  |  |  |  |  |  | 
NC(=O)c1cc[n+](CC2=C(C(=O)O)N3C(=O)[C@@H](NC(=O)[C@@H](c4ccccc4)S(=O)(=O)[O-])[C@H]3SC2)cc1 [cefsulodin] | 0.0184 | > 1880 | 1.24 |  | 260 | 0.225 | 8 (≈ 15 µM) | 71.4 |  |  |  |  |  |  |  |  |  |  | 
CO/N=C(\C(=O)N[C@@H]1C(=O)N2C(C(=O)O)=C(CSc3nc(=O)c(=O)[nH]n3C)CS[C@H]12)c1csc(N)n1 [ceftriaxone] | 0.0135 | > 1800 | 0.119 |  | 4.69 | 0.0361 | 0.25 (≈ 0.451 µM) | 29.4 |  |  |  |  |  |  |  |  |  |  | 
CO/N=C(\C(=O)N[C@@H]1C(=O)N2C(C(=O)O)=C(COC(N)=O)CS[C@H]12)c1ccco1 [cefuroxime] | 0.00424 | > 2360 | 0.189 |  | 52.3 | 0.0353 | 0.125 (≈ 0.295 µM) | 65.7 |  |  |  |  |  |  |  |  |  |  | 
CC1=C(C(=O)O)N2C(=O)[C@@H](NC(=O)[C@H](N)c3ccccc3)[C@H]2SC1 [cephalexin] | > 2880 | > 2880 | < 0.288 |  | 69.4 | 732 | 0.5 (≈ 1.44 µM) | < 0.288 |  |  |  |  |  |  |  |  |  |  | 
CC(=O)OCC1=C(C(=O)O)N2C(=O)[C@@H](NC(=O)Cc3cccs3)[C@H]2SC1 [cephalothin] | 0.00656 | 273 | 0.0192 |  | 29.8 | 0.0151 | 0.0312 (≈ 0.0788 µM) | 0.0164 |  |  |  |  |  |  |  |  |  |  | 
Cc1onc(-c2ccccc2Cl)c1C(=O)N[C@@H]1C(=O)N2[C@@H]1SC(C)(C)[C@@H]2C(=O)O [cloxacillin] | > 2290 | > 2290 | 0.298 | ≤ 50 |  | 0.0505 | 0.125 (≈ 0.287 µM) | 0.206 |  |  |  | < 2290 |  |  |  |  |  |  | 
C[C@@H](O)[C@H]1C(=O)N2C(C(=O)O)=C(S[C@@H]3CN[C@H](CNS(N)(=O)=O)C3)[C@H](C)[C@H]12 [doripenem] | > 2380 | 0.547 |  |  | 0.285 | > 2380 | 0.0625 (≈ 0.149 µM) |  |  |  | < 2380 |  |  |  |  |  |  |  | 
C[C@@H](O)[C@H]1C(=O)N2C(C(=O)O)=C([C@H]3CCCO3)S[C@H]12 [faropenem] | 0.00207 | 0.701 | 0.0179 |  | 3.29 | 0.0315 | 0.125 (≈ 0.438 µM) | 0.0386 |  |  |  |  |  |  |  |  |  |  | 
CC1(C)S[C@@H]2[C@H](/N=C/N3CCCCCC3)C(=O)N2[C@H]1C(=O)O [mecillinam] | > 3070 | > 3070 | 3.29 |  | 275 | > 3070 | 16 (≈ 49.2 µM) | 20.6 |  |  |  |  |  |  |  |  |  |  | 
C[C@@H](O)[C@H]1C(=O)N2C(C(=O)O)=C(S[C@@H]3CN[C@H](C(=O)N(C)C)C3)[C@H](C)[C@H]12 [meropenem] | > 2610 | 0.574 |  | ≤ 50 | 0.678 | ≥ 2610 | 0.0625 (≈ 0.163 µM) |  |  |  | < 2610 |  | significantly reduced | ~ 1 μg/mL | 2.6 | No significant inhibition | 0.67 | ~ 1 μg/mL and 1 μg/mL | 2.6
COc1cccc(OC)c1C(=O)N[C@@H]1C(=O)N2[C@@H]1SC(C)(C)[C@@H]2C(=O)O [methicillin] | > 2630 | 391 | < 0.263 |  | 23.7 | 0.289 | 0.25 (≈ 0.657 µM) | < 0.0263 |  | comparable and within twofold in most cases |  |  |  |  |  |  |  |  | 
Cc1onc(-c2ccccc2)c1C(=O)N[C@@H]1C(=O)N2[C@@H]1SC(C)(C)[C@@H]2C(=O)O [oxacillin] | > 2490 | > 2490 | 0.152 | ≤ 50 | 166 | < 0.249 | 0.25 (≈ 0.623 µM) | 0.139 |  |  |  |  |  |  |  |  |  |  | 
CC1(C)S[C@@H]2[C@H](NC(=O)Cc3ccccc3)C(=O)N2[C@H]1C(=O)O [penicillin G] | > 2990 |  | 0.0568 |  | 4.19 | 0.0269 | 16 (≈ 47.8 µM) | 0.0129 |  |  |  |  |  |  |  |  |  |  | 
CC1(C)S[C@@H]2[C@H](NC(=O)COc3ccccc3)C(=O)N2[C@H]1C(=O)O [penicillin V] | < 0.0285 | 1.77 | < 0.0285 |  | 5.82 | < 0.0285 | 32 (≈ 91.3 µM) | 0.0012 |  |  |  |  |  |  |  |  |  |  | 
CCN1CCN(C(=O)N[C@@H](C(=O)N[C@@H]2C(=O)N3[C@@H]2SC(C)(C)[C@@H]3C(=O)O)c2ccccc2)C(=O)C1=O [piperacillin] | 0.00232 | 21.8 | < 1.93 |  | 3.67 | 0.058 | 64 (≈ 124 µM) | 0.309 |  |  |  |  |  |  |  |  |  |  | 
